According to patent US20060189698A1, “Treatment of interstitial cystitis” (priority 2005, published 2006):
Structures can show the parent of a compound that is named as a salt.

System: women with severe chronic bladder pain
Assay: Treatment of pelvic pain of bladder origin with dextroamphetamine sulfate (two case reports)
Type: in vivo, human
Settings: for effect of earlier conventional therapy on bladder pain (patient's claim): before dextroamphetamine sulfate
From the text: Treatment of Pelvic Pain of Bladder Origin with Dextroamphetamine Sulfate.
Two women with severe chronic bladder pain unresponsive to conventional therapy were offered a novel therapy with dextroamphetamine sulfate. In the first patient, the bladder pain started […] in an intermittent manner for six months and then it became daily. The pain was described as a constant feeling of urgency and pain from the urethra to the bladder on walking. They scored an 18 on the pelvic pain and urging/frequency PST. A laparoscopy […] found minimal endometriosis. A cystoscopy was negative as were repeated urine cultures. […] They failed a water load test excreting only 1000 mL urine after standing 4 hours after drinking 1500 mL.
In the second patient, the pain also began intermittently for six months […]. The pain then began occurring daily and was worse with intercourse and for three days premenstrually. The pain was described as a constant feeling of pressure in the bladder with intense pain after urination. Urine cultures were negative and empirical antibiotics provided no relief. They also failed the water load test.
Dextroamphetamine sulfate spansules (10 mg) were given twice daily to the first patient and once daily to the second patient.

[1] = first patient, spansules 10 mg twice daily
[2] = second patient, spansules 10 mg once daily

C[C@H](N)Cc1ccccc1 [Dextroamphetamine sulfate, dextroamphetamine sulfate]
symptom status after being weaned off the drug (first patient, after 1.5 years on medication): remained symptom free for six months | bladder pain response [1]: pain completely disappeared within two days | time pain free while remaining on medication [1]: 1.5 years | symptoms on interruption and resumption of medication (second patient, forgot their pills on a short trip): symptoms returned immediately but then disappeared immediately upon resumption of medication | bladder pain response [2]: pain decreased immediately and gradually improved daily for one week when it completely disappeared | time remaining pain free [2]: remained pain free for four months

CCN(CC)CC#CCOC(=O)C(O)(c1ccccc1)C1CCCCC1 (centres unmarked) [ditropan]
effect of earlier conventional therapy on bladder pain (patient's claim) (first patient): made it worse

CC(C)(C)NC(=O)[C@H]1CC[C@H]2[C@@H]3CC[C@H]4NC(=O)C=C[C@]4(C)[C@H]3CC[C@]12C [finasteride]
effect of earlier conventional therapy on bladder pain (patient's claim) (first patient): made it worse
